Experimental findings from PMC4560423, “Identification and Characterization of a Novel Galactofuranose-Specific β-D-Galactofuranosidase from Streptomyces Species” (PLoS ONE, 2015) are described below.

For data set [1], the target named is T1, ORF1110 Galf-ase (ORF1110 protein) (Streptomyces sp. JHA19, UniProt A0A0K2SRV3).
T1 construct: recombinant from E. coli BL21(DE3)CodonPlus, pET50b, N-terminal 2xHis6 and Nus tags (cut by HRV3C for TLC only); ORF 786 aa; GH2 with C-terminal AbfB domain
T1 sequence (A0A0K2SRV3 46-786): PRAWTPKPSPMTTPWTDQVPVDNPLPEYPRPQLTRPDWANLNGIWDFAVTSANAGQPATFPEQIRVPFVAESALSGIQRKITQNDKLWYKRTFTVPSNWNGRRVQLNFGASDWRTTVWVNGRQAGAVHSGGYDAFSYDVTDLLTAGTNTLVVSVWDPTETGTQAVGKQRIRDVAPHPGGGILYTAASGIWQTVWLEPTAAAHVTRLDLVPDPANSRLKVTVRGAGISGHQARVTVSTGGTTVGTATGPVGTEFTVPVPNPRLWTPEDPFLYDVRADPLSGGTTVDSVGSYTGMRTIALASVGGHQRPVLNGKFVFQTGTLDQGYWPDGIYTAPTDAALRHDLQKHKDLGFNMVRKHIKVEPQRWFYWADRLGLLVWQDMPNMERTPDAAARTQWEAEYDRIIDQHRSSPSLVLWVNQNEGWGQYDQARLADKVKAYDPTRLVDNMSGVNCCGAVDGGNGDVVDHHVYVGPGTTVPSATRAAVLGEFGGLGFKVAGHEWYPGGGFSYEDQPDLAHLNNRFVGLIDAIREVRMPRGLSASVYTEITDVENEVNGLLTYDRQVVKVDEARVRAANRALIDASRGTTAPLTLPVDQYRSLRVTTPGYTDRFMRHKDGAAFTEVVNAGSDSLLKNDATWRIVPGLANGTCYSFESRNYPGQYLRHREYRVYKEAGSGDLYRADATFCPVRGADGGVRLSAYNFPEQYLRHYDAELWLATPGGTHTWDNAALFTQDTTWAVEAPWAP
Put plainly: inhibition of pNP-β-D-Galf hydrolysis, pNP absorbance at […] nm. The format is biochemical.

The test system of data set [2] is O=[N+]([O-])c1ccc(O[C@@H]2O[C@@H]([C@H](O)CO)[C@H](O)[C@H]2O)cc1. As to the kind of experiment: purified protein. As to conditions: 37 °C, acetate buffer pH 4.5 (general assay; pH of the kinetics not stated).

For orientation: Ki means the dissociation constant of the complex between target and ligand, obtained from inhibition or displacement. Read a high Ki as weaker binding. What is called Km is the concentration of substrate that gives half-maximal velocity.

In the case of `O=C1O[C@@H](CO)[C@H](O)[C@H]1O` [L-arabino-1,4-lactone], in data set [1], the affinity corresponds to a Ki of 51 mM.

For “ORF1110 Galf-ase (ORF1110 protein) (Streptomyces sp. JHA19)”, the Michaelis-Menten constant (Km) in data set [2] is on record as 4.4 mM.
